Legend:
[1] = biological target: T1, α1β2γ2 recombinant GABA-A receptors (Homo sapiens, UniProt P14867+P18507+P47870); experiment: cell-based; conditions: α1β2γ2
T1 construct: expressed in transfected cells; host or cells: Xenopus laevis oocytes injected with cRNA

[2] = biological target: T2, α1β1 GABA-A recombinant receptors (Homo sapiens, UniProt P14867+P18505); experiment: Two-electrode voltage clamp, modulation of GABA currents in Xenopus oocytes; assay type: cell-based
T2 construct: expressed in transfected cells; host or cells: Xenopus laevis oocytes injected with cRNA
T2 sequence (P14867 28-456): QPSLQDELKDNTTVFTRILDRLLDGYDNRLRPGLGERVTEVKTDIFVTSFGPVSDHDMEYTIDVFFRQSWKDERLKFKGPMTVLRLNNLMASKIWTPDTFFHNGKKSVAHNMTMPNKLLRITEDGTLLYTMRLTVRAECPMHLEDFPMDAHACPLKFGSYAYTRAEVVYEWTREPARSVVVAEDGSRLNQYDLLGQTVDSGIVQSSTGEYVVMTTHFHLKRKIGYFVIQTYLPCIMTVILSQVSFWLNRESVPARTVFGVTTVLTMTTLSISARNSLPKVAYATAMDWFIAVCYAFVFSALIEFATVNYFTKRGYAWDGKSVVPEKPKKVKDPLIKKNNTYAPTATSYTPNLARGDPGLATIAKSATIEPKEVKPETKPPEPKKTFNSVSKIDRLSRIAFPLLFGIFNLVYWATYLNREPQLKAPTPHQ
T2 sequence (P18505 26-474): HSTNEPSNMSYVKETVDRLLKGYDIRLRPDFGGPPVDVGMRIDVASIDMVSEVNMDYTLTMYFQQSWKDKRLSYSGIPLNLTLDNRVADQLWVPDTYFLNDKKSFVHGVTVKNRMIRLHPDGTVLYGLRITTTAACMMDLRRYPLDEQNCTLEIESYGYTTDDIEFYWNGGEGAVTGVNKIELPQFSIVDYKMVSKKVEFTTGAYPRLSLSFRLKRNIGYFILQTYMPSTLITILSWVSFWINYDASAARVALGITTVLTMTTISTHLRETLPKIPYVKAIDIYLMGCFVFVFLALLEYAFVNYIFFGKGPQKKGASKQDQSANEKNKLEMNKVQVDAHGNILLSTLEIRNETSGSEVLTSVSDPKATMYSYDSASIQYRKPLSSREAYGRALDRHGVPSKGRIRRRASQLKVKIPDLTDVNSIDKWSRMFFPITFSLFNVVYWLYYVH
Procedure: (§1) The compounds synthesized are also studied for their ability to cause opening of the channel of the GABA-A receptor or to allosterically modulate the currents caused by GABA. For this purpose, the GABA-A recombinant receptors are expressed in Xenopus oocytes. Briefly, Xenopus laevis oocytes are prepared, injected and defolliculated and the currents are recorded in the way described (E. Sigel, J. Physiol., 1987, 386, 73 and E. Sigel, R. Baur, G. Trube, H. Möhler, P. Malherbe, Neuron, 1990, 5, 703). The oocytes are injected with 50 nl of cRNA dissolved in 5 mM of K-Hepes (pH 6.8). This solution comprises the transcripts coding for the various subunits at a concentration of 10 nM for α1, 10 nM for β2 and 50 nM for γ2. The RNA transcripts are synthesized from linearized plasmids encoding the desired protein using the message machine kit (Ambion) according to the recommendations of the manufacturers. A poly(A) tail of approximately 300 residues is added to the transcripts using yeast poly(A) polymerase (USB or Amersham). The cRNA combinations are coprecipitated from ethanol and stored at −20° C. The transcripts are quantified on agarose gels, after having been stained with the RNA stain Radiant Red (Bio-Rad), by comparing the intensities of the stainings with various amounts of molecular weight markers (RNA-Ladder, Gibco-BRL). The electrophysiological experiments are carried out by the two-electrode voltage clamp method at a holding potential of −80 mV. The medium comprises 90 mM of NaCl, 1 mM of KCl, 1 mM of MgCl2, 1 mM of CaCl2 and 10 mM of Na-Hepes (pH 7.4). GABA is applied for 20 s and a washing period of 4 min is allowed in order to provide for the complete […]. The perfusion system is cleaned between the applications of the compounds by washing with dimethyl sulfoxide to prevent contamination. The compounds are applied at a concentration of 100 microM in the absence of GABA in order to see whether they can act as channel agonists. To study the allosteric modulation, GABA is first of all applied alone and then in combination with either […] or 100 microM of compounds.
(§2) Thus, it is observed that the compound R-30 (100 μM) produces a 5 times greater stimulation of the GABA currents in the receptors comprising the β2 subunits with respect to the receptors carrying only the β1 subunit (table 4). At 10 μM, the compound R-30 produces a stimulation only in the receptors comprising the β2 subunit. The anticonvulsant loreclezole similarly enhances the activity of the GABA-A receptor by interacting with a site present on the receptors comprising the β2 subunit (and the β3 subunit) but not present on the receptors comprising the β1 subunit (P. B. Wingrove, K. A. Wafford, C. Bain, P. J. Whiting, Proc. Natl. Acad. Sci. USA, 1994, 91, 4569). […] The compounds of the present invention therefore appear to stimulate the activity of GABA by acting on a different site from that of α-EMTBL and related compounds, despite the apparent structural resemblance of these two classes of compounds.

[3] = tested on: α2β2 GABA-A recombinant receptors; experiment: as above; assay type: cell-based; conditions: for % of stimulation of the GABA currents: α2β2
Procedure: as §1, §2

[4] = tested on: GABA-A receptors comprising β2 or β3 subunits versus β1 subunit; conditions: Wingrove et al. 1994; cited from earlier work

T1 sequence (P47870 25-512 limits assumed, one chain of several): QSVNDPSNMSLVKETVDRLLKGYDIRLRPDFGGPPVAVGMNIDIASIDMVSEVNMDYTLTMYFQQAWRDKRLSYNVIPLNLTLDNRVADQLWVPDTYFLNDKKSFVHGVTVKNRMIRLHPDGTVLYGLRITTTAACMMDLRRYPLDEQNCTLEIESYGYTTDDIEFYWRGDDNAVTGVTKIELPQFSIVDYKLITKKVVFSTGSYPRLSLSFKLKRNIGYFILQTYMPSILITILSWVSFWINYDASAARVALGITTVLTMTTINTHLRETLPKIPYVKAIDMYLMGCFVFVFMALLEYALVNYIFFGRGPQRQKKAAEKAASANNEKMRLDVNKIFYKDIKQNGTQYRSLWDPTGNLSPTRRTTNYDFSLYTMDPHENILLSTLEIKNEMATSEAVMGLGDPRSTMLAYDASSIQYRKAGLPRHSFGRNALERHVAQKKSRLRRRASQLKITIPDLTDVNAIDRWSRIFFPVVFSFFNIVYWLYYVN
T1 sequence (P18507 40-475, one chain of several): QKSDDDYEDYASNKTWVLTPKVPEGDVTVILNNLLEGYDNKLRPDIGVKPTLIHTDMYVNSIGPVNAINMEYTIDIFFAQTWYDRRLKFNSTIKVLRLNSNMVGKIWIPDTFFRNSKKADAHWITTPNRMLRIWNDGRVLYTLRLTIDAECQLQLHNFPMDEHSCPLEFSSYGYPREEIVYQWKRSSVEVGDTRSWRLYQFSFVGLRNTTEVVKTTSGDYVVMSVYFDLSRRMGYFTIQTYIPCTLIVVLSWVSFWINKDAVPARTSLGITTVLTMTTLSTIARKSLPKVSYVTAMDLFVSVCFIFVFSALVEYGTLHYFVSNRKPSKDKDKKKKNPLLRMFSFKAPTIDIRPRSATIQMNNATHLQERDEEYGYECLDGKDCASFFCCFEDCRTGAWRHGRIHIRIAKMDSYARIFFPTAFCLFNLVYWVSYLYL

## 3-(R)-Benzyloxycarbonylamino-3,3-di(C-propyl)-1,4-butyrolactone [Compound R-30]
[1]; 10 μM
  % of stimulation of the GABA currents: +51 ± 94%
[1]; 100 μM
  % of stimulation of the GABA currents: +279 ± 94%
[1]
  power relative to the corresponding S isomer in stimulating GABA currents: twice as powerful
[2]; 10 μM
  % of stimulation of the GABA currents: −5 ± 11%
[2]; 100 μM
  % of stimulation of the GABA currents: +92 ± 28%
[3]; 10 μM
  % of stimulation of the GABA currents: +78 ± 4%
[3]; 100 μM
  times greater stimulation of the GABA currents in receptors comprising β2 subunits with respect to β1 only: 5 times
  % of stimulation of the GABA currents: +588 ± 166%

## Cl/C(=C\n1cncn1)c1ccc(Cl)cc1Cl [loreclezole]
[4]
  affinity for receptors comprising β2 or β3 subunits relative to receptors comprising the β1 subunit: 300 times

— patent publication US6660769B1, “N substituted 3-amino-2,2-di-c-alkyl-1,4-butyrolactones and 1,4-thiobutyrolactones for use as promoter of γ-aminobutyric acid activity and for treating nervous disorders and preparation method” (priority 1999, dated 2003)
